Read-outs that look alike come from different tables or passages of the source.
Key:
pKa = assay type: physicochemical
[1] = target: P-glycoprotein (MDR1-transfected MDCK cell line) (Homo sapiens (Human), UniProt P08183); test: Pgp Liability MDR1 Er; assay type: in vitro ADME; settings: Papp BA/AB
Source text: MDR1 Efflux Ratio (MDR Er) from MDR1-transfected MDCK line cell line represents the ratio of permeability, Papp BA/AB. Procedure utilized from (Feng, B.; Mills, J. B.; Davidson, R. E.; Mireles, R. J.; Janiszewski, J. S.; Troutman, M. D.; de Morais, S. M. In vitro P-glycoprotein assays to predict the in vivo interactions of P-glycoprotein with drugs in the central nervous system. Drug Metab. Dispos. 2008, 36, 268-275.

CYP2D6 = CYP2D6 (Homo sapiens (Human), UniProt P10635); test: General Multi-Point Cocktail DDI IC50 Assay
Description: General Multi-Point Cocktail DDI IC50 Assay Conditions:
The incubation volume is 0.1 mL, utilizing a 384-well plate format. […] Substrate concentrations are near Km values that had been previously determined and incubation times are selected based on determinations of reaction velocity linearity. […] Samples are directly injected on an HPLC/MS/MS system. A Biomek FX workstation is used for liquid handling and sample incubation.

[2] = HLM Clint (clearance in human liver microsomes); assay type: in vitro ADME; settings: for CLint scaled: human
BACE1 = BACE1 (Homo sapiens (Human), UniProt P56817); test: BACE1 Cell-Free Assay (fluorescence polarization); assay type: biochemical
hERG channel = hERG channel (Homo sapiens (Human), UniProt Q12809); test: hERG Patch Clamp Assay; assay type: cell-based
Description: After a ˜30 minute recovery period, experiments were initiated.
hERG Potassium Channel Current Recordings and Data Analysis:
The intracellular recording saline was composed of (in […]): 70 KF, 60 KCl, 15 NaCl, 5 EGTA, 5 HEPES, and adjusted to pH 7.2±0.1 with KOH. […] Test pulses were delivered at a frequency of 0.25 Hz. Up to 4 different concentrations were studied on each cell, each exposure lasting 5 minutes or until steady-state effects were observed. […] Using Sophion Qpatch Assay Software, the amplitude of the peak outward hERG current upon repolarizing ramp was measured. Current amplitude was determined by taking the average of the last 5 current peaks under each treatment condition. […] When possible, a concentration-response curve was plotted and the data were fitted using Qpatch software to determine an IC50. The P<0.05 was considered statistically significant.

[3] = system: sAPPβ, the primary cleavage product of BACE1, in H4 human neuroglioma cells over-expressing the wild-type human APP695; test: sAPPβ Whole-Cell Assay (WCA); assay type: cell-based; settings: 18 h
Description: sAPPβ Whole-Cell Assay (WCA):
sAPPβ, the primary cleavage product of BACE1, was determined in H4 human neuroglioma cells over-expressing the wild-type human APP695. […] The colorimetric reaction was read by an EnVision (PerkinElmer) plate-reader.

GSH Incubation Assay [4] = assay type: in vitro ADME; settings: incubation in human liver microsomes in the presence of GSH
human BACE2 = human BACE2 (Homo sapiens (Human), UniProt Q9Y5Z0); test: BACE2 binding assay (SPA); settings: ratio of IC50 from BACE2 and BACE1 binding assays, pH 6.0
Source text: BACE2/BACE1 Binding Ratio:
The BACE1 and BACE2 binding assays measured beta-site amyloid precursor protein-cleaving enzyme (BACE) binding as a decrease in the counts of radioligand bound in a scintillation proximity assay (SPA). Utilizing a radiolabeled small molecule BACE active site binding inhibitor and crude HEK cell membrane preparations over-expressing full length BACE1 or BACE2, the binding of enzyme by test compound was monitored as a reduction of specific counts bound at pH 6.0. Full length human BACE1 or BACE2 over-expressed in HEK cells was prepared by Pfizer scientists. Frozen stock cell paste was reacted in 50 mM sodium acetate buffer (pH=6.0) containing 3H-(4aR,6R,8aS)-8a-(2,4-difluorophenyl)-6-(1-methyl-1H-pyrazol-4-yl)-4,4a,5,6,8,8a-hexahydropyrano[3,4-d][1,3]thiazin-2-amine ligand, SPA bead and 60 μM to 600 pM of test compound in an assay volume of 27 uL. The compound plate also contained positive (BACE inhibitor) and negative (DMSO) control wells. The binding was carried out at room temperature for 30 minutes and then the plates were read on a TriLux Microbeta reader to determine the number of counts bound.

GSH Incubation Assay [5] = assay type: in vitro ADME; settings: for Observed GSH adducts: Incubations with glutathione (50 mM) at 37° C. in buffer for 4 hours; for formation of GSH adducts: following incubations
Description: The test compound (10 μM in DMSO) was incubated with L-glutathione (50 mM, prepared in 100 mM potassium phosphate buffer) at 37° C. for 4 hours and then analyzed by HPLC-UV/MS/MS without work-up. Thermo Accela HPLC and Velos Pro Orbitrap Elite (S/N: SN05189B) operating in positive mode with a source voltage of 3.5 kV with data dependant processing. HPLC with a Phenomenox Kinetex C18, 1.7 μM, 2.1×100 mm. column (P/N: 00D-4475-AN), 5% acetonitrile/95% 0.1% formic acid for 0.5 min then a 7.0 min linear gradient to 40% acetonitrile/60% 0.1% formic acid, 400 μL/min., column temperature 45° C. Product assignments were based on high resolution mass spectrometer fragmentation.

[6] = Measurement determined at Analyza
[7] = MDR1-transfected MDCK cell line, ratio of permeability
[8] = Table 4, read-out: BACE1 Cell Free IC50
[9] = CHO cell transfected with hERG gene, automated Qpatch HT system
[10] = Measurement determined at Analyza, read-out: pKa
[11] = CHO cells transfected with hERG
[12] = geometric mean of 2-4 determinations unless otherwise indicated (b: ≧5; c: single determination), read-out: BACE1 Cell-free Assay IC50

Sequence of BACE1 (P56817 46-457): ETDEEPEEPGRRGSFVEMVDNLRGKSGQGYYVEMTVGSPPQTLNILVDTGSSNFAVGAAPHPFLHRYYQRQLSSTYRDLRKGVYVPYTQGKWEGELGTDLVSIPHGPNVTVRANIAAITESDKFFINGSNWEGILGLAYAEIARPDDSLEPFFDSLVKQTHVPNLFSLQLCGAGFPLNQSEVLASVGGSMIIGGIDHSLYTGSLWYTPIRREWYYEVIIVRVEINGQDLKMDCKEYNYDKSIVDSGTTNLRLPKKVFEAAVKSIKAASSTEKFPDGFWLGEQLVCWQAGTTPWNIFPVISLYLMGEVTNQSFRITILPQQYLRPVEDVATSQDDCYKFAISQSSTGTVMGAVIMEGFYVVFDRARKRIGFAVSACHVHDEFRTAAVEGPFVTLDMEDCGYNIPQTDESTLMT
Sequence of P-glycoprotein (MDR1-transfected MDCK cell line) (P08183 whole entry): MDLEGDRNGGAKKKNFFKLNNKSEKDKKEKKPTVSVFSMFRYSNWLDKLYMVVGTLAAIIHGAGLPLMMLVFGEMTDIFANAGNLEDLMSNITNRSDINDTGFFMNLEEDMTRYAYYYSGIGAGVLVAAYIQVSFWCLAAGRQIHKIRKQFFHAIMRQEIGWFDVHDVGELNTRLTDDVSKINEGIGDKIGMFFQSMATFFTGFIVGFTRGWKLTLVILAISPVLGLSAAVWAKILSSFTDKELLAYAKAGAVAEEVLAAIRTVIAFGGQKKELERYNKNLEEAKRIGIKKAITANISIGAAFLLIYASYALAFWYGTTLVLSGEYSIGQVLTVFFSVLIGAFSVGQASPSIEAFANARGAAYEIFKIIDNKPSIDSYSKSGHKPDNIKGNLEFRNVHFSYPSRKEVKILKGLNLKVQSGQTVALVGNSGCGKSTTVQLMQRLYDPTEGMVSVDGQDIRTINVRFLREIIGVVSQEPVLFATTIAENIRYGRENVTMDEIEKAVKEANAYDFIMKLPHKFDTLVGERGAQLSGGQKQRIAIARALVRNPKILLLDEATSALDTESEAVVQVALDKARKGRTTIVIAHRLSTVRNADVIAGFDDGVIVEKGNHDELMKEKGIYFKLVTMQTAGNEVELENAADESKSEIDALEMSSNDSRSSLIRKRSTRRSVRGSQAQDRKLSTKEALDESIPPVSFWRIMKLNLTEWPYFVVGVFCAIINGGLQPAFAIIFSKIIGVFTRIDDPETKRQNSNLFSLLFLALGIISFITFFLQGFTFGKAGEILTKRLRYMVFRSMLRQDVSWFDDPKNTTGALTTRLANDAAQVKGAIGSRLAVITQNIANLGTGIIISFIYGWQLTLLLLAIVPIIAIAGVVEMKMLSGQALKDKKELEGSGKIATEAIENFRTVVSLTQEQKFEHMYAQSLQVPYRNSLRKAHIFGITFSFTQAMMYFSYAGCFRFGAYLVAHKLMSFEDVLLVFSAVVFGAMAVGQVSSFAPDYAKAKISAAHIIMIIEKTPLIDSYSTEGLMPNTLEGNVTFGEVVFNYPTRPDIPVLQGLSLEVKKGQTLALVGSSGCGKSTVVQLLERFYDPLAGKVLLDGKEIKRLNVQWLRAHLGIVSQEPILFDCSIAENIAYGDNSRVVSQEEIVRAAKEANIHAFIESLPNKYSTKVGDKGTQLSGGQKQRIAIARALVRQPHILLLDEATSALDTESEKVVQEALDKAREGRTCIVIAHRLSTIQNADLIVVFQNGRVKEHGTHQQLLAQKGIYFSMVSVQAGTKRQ
Sequence of CYP2D6 (P10635 whole entry): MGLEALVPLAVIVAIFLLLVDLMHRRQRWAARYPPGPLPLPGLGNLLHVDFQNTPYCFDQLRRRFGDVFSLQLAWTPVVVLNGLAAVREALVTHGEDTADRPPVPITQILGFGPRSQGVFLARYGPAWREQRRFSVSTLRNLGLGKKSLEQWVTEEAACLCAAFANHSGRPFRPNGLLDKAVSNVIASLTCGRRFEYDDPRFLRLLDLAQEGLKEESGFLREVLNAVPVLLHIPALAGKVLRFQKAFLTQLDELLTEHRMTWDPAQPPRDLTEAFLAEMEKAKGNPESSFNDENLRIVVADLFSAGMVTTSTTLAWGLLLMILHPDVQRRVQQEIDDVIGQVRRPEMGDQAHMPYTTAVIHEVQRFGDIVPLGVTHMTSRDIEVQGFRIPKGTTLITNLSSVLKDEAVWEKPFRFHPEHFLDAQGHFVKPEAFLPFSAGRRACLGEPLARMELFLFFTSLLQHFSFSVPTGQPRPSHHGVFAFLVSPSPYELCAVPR
Sequence of hERG channel (Q12809 whole entry): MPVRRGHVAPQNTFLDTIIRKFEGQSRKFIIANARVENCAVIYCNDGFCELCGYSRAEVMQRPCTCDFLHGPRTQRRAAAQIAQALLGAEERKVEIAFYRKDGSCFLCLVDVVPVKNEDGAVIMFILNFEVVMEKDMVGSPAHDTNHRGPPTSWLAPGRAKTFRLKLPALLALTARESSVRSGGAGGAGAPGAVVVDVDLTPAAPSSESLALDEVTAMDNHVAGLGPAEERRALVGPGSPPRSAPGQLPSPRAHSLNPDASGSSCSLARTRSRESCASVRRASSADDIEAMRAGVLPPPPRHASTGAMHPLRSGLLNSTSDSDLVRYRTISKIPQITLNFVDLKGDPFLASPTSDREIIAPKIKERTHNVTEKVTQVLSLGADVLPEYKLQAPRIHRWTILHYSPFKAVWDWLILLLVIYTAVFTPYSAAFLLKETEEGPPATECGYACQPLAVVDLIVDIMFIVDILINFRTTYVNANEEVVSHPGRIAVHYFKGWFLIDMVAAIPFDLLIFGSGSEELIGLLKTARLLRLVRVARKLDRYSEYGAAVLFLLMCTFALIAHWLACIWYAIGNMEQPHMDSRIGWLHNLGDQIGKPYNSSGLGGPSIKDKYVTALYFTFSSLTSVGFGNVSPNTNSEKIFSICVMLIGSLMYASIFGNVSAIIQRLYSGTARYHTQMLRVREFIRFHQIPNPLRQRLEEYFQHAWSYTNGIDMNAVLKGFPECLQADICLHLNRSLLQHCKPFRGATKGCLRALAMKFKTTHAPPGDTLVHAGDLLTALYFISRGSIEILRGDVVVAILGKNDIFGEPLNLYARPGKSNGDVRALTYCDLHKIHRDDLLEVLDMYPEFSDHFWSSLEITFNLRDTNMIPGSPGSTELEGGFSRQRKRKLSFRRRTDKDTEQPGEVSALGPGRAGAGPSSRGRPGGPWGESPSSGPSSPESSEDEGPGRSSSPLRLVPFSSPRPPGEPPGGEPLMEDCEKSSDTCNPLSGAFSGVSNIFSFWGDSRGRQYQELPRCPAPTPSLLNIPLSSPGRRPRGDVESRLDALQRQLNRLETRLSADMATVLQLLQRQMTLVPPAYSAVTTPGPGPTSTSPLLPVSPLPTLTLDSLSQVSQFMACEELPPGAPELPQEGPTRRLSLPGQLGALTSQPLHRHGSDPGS
Sequence of human BACE2 (Q9Y5Z0 63-518): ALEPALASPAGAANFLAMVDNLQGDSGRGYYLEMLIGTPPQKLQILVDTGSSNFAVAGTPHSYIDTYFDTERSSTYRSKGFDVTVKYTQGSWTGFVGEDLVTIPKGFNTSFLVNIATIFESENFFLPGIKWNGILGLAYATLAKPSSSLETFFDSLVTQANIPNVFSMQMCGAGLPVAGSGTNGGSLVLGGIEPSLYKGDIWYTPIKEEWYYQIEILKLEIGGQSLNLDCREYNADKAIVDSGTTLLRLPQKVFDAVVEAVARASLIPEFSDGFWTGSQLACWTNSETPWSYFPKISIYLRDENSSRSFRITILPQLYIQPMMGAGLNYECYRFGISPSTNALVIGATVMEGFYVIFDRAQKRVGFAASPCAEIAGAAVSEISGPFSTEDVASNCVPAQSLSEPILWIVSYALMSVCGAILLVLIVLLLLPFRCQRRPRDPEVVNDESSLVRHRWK

Row | SMILES | pKa (pKa; [6]) | Aniline Structural Alert (Aniline structural alert) | Pgp liability MDR1 Er [1, 7] | HLM CLint [2] | IC50 (BACE1; [8]) | IC50 (hERG channel; [9]) | IC50 (BACE1; [12]) | other results
1 | C[C@H]1C[C@H]2CSC(N)=N[C@@]2(c2nc(NC(=O)c3ccc(OC(F)F)cn3)cs2)CO1 [Comparator 1] | 7.0 | No | 7.1 | – | – | – | – | –
2 | C[C@H]1C[C@H]2CSC(N)=N[C@@]2(c2nc(NC(=O)c3ccc(OC(F)F)cn3)ccc2F)CO1 [Comparator 2] | 8.7 | No | 14.2 | 22.9 mL/min/kg^ | 43 nM | – | – | pKa (pKa): 8.7; IC50 (CYP2D6; read-out: CYP2D6 IC50): < 30 nM
3 | C[C@H]1C[C@H]2CSC(N)=N[C@@]2(c2nc(NC(=O)c3ccc(OC(F)F)cn3)ccc2F)CO1 [Comparator 3, reference compound] | 8.3 | Yes | 5.1 | 19.8 mL/min/kg^ | 3 nM | 400 nM | – | –
4 | NC1=N[C@@]2(c3cc(NC(=O)c4ccc(OC(F)F)cn4)ccc3F)COCC[C@H]2CS1 [Comparator 4, reference compound] | 8.2 | Yes | 6.8 | 8.3 mL/min/kg | 9 nM | 500 nM | – | IC50 (CYP2D6; microsomes): < 100 nM; IC50 [3]: < 1 nM
5 | C[C@H]1C[C@H]2CSC(N)=N[C@@]2(c2cc(NC(=O)c3ccc(C#N)cn3)cs2)CO1 [Comparator 5] | – | No | – | – | – | – | – | formation of GSH adducts (GSH Incubation Assay [4]): formation of chemical adducts
6 | NC1=N[C@@]2(c3cc(NC(=O)c4ccc(OC(F)F)cn4)ccc3F)CO[C@@H](C(F)(F)F)C[C@H]2CS1 [Comparator 6, reference compound] | 7.7 | Yes | 3.2 | <12.8 mL/min/kg | 6 nM | – | – | IC50 [3]: < 1 nM; BACE2/BACE1 Binding Ratio (human BACE2): 1.0
7 | C[C@H]1C[C@H]2CSC(N)=N[C@@]2(c2cc(NC(=O)c3ccc(Cl)cn3)ccc2F)CO1 [Comparator 7, reference compound] | 8.2 | Yes | 3.03 | 34.4 mL/min/kg^ | 1 nM | 200 nM | – | IC50 [3]: < 1 nM; BACE2/BACE1 Binding Ratio (human BACE2): 1.0
8 | C[C@H]1C[C@H]2CSC(N)=N[C@@]2(c2nc(NC(=O)c3ccc(OC(F)F)cn3)cs2)CO1 [Example 1, N-{2-[(4aR,6S,8aR)-2-amino-6-methyl-4,4a,5,6-tetrahydropyrano[3,4-d][1,3]thiazin-8a(8H)-yl]-1,3-thiazol-4-yl}-5-(difluoromethoxy)pyridine-2-carboxamide] | – | – | – | <8 mL/min/kg | – | 9900 nM | – | pKa (pKa; [10]): 6.8; IC50 (CYP2D6): > 30000 nM; IC50 (CYP2D6; human, microsomes, pH 7.4): > 30000 nM; Pgp liability MDR1 Er ([1]; MDR1-transfected MDCK): < 2.5; CLint scaled [2]: < 8 mL/min/kg; IC50 (hERG channel; [11]): > 5000 nM; Observed GSH adducts (GSH Incubation Assay [5]): Negative; formation of GSH adducts (GSH Incubation Assay [5]): not detected; IC50 ([3]; Homo sapiens): 5 nM
9 | C[C@H]1C[C@H]2CSC(N)=N[C@@]2(c2nc(NC(=O)c3ccc(Cl)cn3)cs2)CO1 [Example 7, N-{2-[(4aR,6S,8aR)-2-amino-6-methyl-4,4a,5,6-tetrahydropyrano[3,4-d][1,3]thiazin-8a(8H)-yl]-1,3-thiazol-4-yl}-5-chloropyridine-2-carboxamide] | – | No | – | <8 mL/min/kg | – | 9000 nM | – | pKa (pKa; [10]): 6.9; IC50 (CYP2D6): > 30000 nM; IC50 (CYP2D6; human, microsomes, pH 7.4): > 30000 nM; Pgp liability MDR1 Er ([1]; MDR1-transfected MDCK): < 2.5; CLint scaled [2]: < 8 mL/min/kg; IC50 (hERG channel; [11]): > 5000 nM; Observed GSH adducts (GSH Incubation Assay [5]): Negative; formation of GSH adducts (GSH Incubation Assay [5]): not detected; IC50 ([3]; Homo sapiens): 4 nM
10 | Cc1cc(OC(F)F)cnc1C(=O)Nc1csc([C@]23CO[C@@H](C)C[C@H]2CSC(N)=N3)n1 [Example 45, N-{2-[(4aR,6S,8aR)-2-amino-6-methyl-4,4a,5,6-tetrahydropyrano[3,4-d][1,3]thiazin-8a(8H)-yl]-1,3-thiazol-4-yl}-5-(difluoromethoxy)-3-methylpyridine-2-carboxamide] | – | No | – | <8 mL/min/kg | 23 nM | – | 23 nM | pKa (pKa; [10]): 6.9; IC50 (CYP2D6): > 30000 nM; IC50 (CYP2D6; human, microsomes, pH 7.4): > 30000 nM; CLint scaled [2]: < 8 mL/min/kg; Observed GSH adducts (GSH Incubation Assay [5]): Negative; formation of GSH adducts (GSH Incubation Assay [5]): not detected; IC50 ([3]; Homo sapiens): 3 nM
11 | C[C@H]1C[C@H]2CSC(N)=N[C@@]2(c2nc(NC(=O)C3(C#N)CC3)cs2)CO1 [Example 106, N-{2-[(4aR,6S,8aR)-2-amino-6-methyl-4,4a,5,6-tetrahydropyrano[3,4-d][1,3]thiazin-8a(8H)-yl]-1,3-thiazol-4-yl}-1-cyanocyclopropanecarboxamide] | – | – | – | – | – | – | 348 nM | –
12 | C[C@H]1C[C@H]2CSC(N)=N[C@@]2(c2nc(NC(=O)C3CC3)cs2)CO1 [Example 107, N-{2-[(4aR,6S,8aR)-2-amino-6-methyl-4,4a,5,6-tetrahydropyrano[3,4-d][1,3]thiazin-8a(8H)-yl]-1,3-thiazol-4-yl}cyclopropanecarboxamide] | – | – | – | – | – | – | 475 nM | –
13 | C[C@H]1C[C@H]2CSC(N)=N[C@@]2(c2nc(NC(=O)C3(C#N)CCC3)cs2)CO1 [Example 108, N-{2-[(4aR,6S,8aR)-2-amino-6-methyl-4,4a,5,6-tetrahydropyrano[3,4-d][1,3]thiazin-8a(8H)-yl]-1,3-thiazol-4-yl}-1-cyanocyclobutanecarboxamide] | – | – | – | – | – | – | 94 nM | –
14 | C[C@H]1C[C@H]2CSC(N)=N[C@@]2(c2nc(NC(=O)C3(C)CCC3)cs2)CO1 [Example 109, N-{2-[(4aR,6S,8aR)-2-amino-6-methyl-4,4a,5,6-tetrahydropyrano[3,4-d][1,3]thiazin-8a(8H)-yl]-1,3-thiazol-4-yl}-1-methylcyclobutanecarboxamide] | – | – | – | – | – | – | 461 nM | –
